In a melting point compilation (Tetko et al.; mined from patent text by program, amines drawn as free bases though some values may be those of a salt):

SMILES | melting point [°C]
CCCCCCCCCCOc1csc(-c2ccc(N)cc2)c1OCCCCCCCCCC | 64.5 to 65.5
O=C(CCN1CCN(c2cnc3ccccc3c2)CC1)c1csc2ccccc12 | 112 to 114
C=CCC(=O)S/C=C\C(=O)NCCCCCCCC | 60 to 62
O=S1(=O)c2cccc3cccc(c23)N1CCCN1CCC(CC2CCc3ccccc32)CC1 (stereo not given) | 183
COc1cc2c(c3c1OC(C)(C)C3)C(c1cccc(NC(=O)c3ccc(Cl)nc3Cl)c1)=NC(C)(C)C2 | 130 to 132
CCOCc1nc2c(N)nc3cc(-c4ccccc4)cnc3c2n1CCCON=C(C)C | 134 to 136
CCCc1c(OCCCOc2cccc3c2CCCC3)ccc2c1OC(CCCO)(CCCO)CC2O (stereo not given) | 123 to 124
COC(=O)c1c(CC#N)c(-c2ccc3c(c2)OCO3)c2c3c(ccc2c1C)OCO3 | 215 to 217
CCCc1n[nH]c(CCC)n1 | 69 to 70
O=C(NC[C@H]1O[C@@H]1c1ccccc1)C(F)(F)F (racemic) | 79
CC(Oc1ncc(F)c(N)n1)c1ccc(F)cc1 (stereo not given) | 96 to 98
N=CN1C(C(=O)NN)C(Sc2ccccc2)=CC(=O)N1c1ccccc1 (stereo not given) | 236 to 238
O=C(c1c(F)cccc1F)N1CS(=O)CN(c2ccc(Cl)cc2)C1=O (stereo not given) | 220
C=C(c1ccc(OC)c(C)c1)c1ccc(C)c(Br)c1 | 48 to 51
COCOc1cc(NC(=O)OC(C)(C)C)cc2ccccc12 | 64 to 66
O=C(O)c1cnc2n1CCc1ccccc1C2=C1CCN(CCc2ccc(OCc3ccc4ccccc4n3)cc2)CC1 | 174
O=C(Oc1ccccc1)OC1C2=C(SCCS2)C(=O)N1c1ccc(Cl)cn1 (stereo not given) | 178
O=C(O)[C@H]1CCCN1C(=O)C(F)(F)F | 48 to 51
CCOP(=O)(O)COCCn1cnc2c(=O)[nH]c(N)nc21 | 192 to 194
Fc1ccc2c(c1)nc(/C=C/c1ccoc1)n2-c1ccccn1 | 168 to 170
CC(C)c1nc(CCOC2=CCCc3ccccc32)n(C)c1Sc1cc(Cl)cc(Cl)c1 | 99 to 102
COC1=C(OC)C(=O)C2=C(CC(CCCCCCCCN3CCN(c4ccccn4)CC3)C2)C1=O | 80 to 84
C=C1C(=C)C2C(CCC3(C)C2CCC3(O)C(C)=O)C2(C)CCC(=O)C=C12 (stereo not given) | 274 to 276
CC(C)(C)c1nc2cc(N3CCOCC3)c([N+](=O)[O-])cc2s1 | 119 to 121
Cc1c(Cl)ccc2c3c([nH]c12)[C@@]1(CC(=O)O)CC[C@H]1CC3 (relative stereo) | 189 to 190

SMILES | melting point [°C]
Clc1ccc(OCCN2CCN3CC=C(c4ccncc4)N=C32)cc1 | 211 to 213
CCC1C(=O)N(CCCCN2CCN(c3ccccn3)CC2)c2cc(F)ccc21 (stereo not given) | 137 to 139
COc1nc2cc(Cl)cc(C#CCO)c2nc1OC | 137 to 140
CCn1ncc2c3onc(-c4cccc(C)c4)c3cnc21 | 122 to 123
Cn1c(C(F)(F)F)cc(=O)n(-c2ccc(Cl)cc2F)c1=O | 114 to 116
O=C(O)C#Cc1ccccn1 | 130
Cc1cccc(Nc2ncccc2[N+](=O)[O-])n1 | 153 to 154
O=[N+]([O-])c1cnn2c(-c3ccco3)ccnc12 | 235 to 237
CS(=O)(=O)Nc1ccc(NCC2CCNCC2)c(C(=O)Nc2ccc(Cl)cn2)c1 | 223 to 226
O=C(O)c1cn(-c2cc([N+](=O)[O-])c(F)cc2F)c2cc(F)c(F)cc2c1=O | > 270
O=C1OC(=O)c2c1cccc2-c1ccccc1 | 148 to 149
N#Cc1cccc(-c2cc(-c3ccccc3C(=O)O)on2)c1 | 195 to 196
Fc1cccc(Cl)c1COc1cccnc1NC(=S)Nc1ccc(Cl)cc1 | 162 to 164
COc1cc(OC)c(S(=O)(=O)Cl)c(OC)c1 | 126 to 129
CCCCCCCCCCCC(=O)OC1CC(c2ccccc2)NC(c2ccccc2)C1C (stereo not given) | 56 to 59
CCN1CCC/C1=C\c1nc(-c2ccc(F)cc2)c(-c2ccncc2)n1CCCc1ccccc1 | 127 to 128
CC(c1ccccc1)N1CCC(n2cnc3ccc(Cl)cc3c2=O)CC1 (stereo not given) | 160 to 162
Nc1nc(-c2ccc(CCN3CCN(c4cccc5cc(Cl)ccc45)CC3)cc2)cs1 | 210 to 215
c1cncc(-c2ccc3nncn3c2)c1 | 200 to 202
O=C(c1cc2c([nH]c3ccccc32)s1)N1CCOCC1 | 92 to 95
COc1cc(Cc2nccc3c(OC(C)=O)cc(OC(C)=O)cc23)cc(OC)c1OC | 118 to 120
O=C1N(Cc2nnc(-c3ccc(Cl)cc3)o2)c2ccccc2C12COc1cc3c(cc12)OCO3 (stereo not given) | 161 to 162
CS(=O)(=O)c1ccc(-c2cnn(-c3ccc(F)c(F)c3)c(=O)c2Oc2ccc(Br)cc2)cc1 | 196 to 199
Cc1cnc(CCCCCNc2ncc(Cc3ccc(C)nc3)c(=O)[nH]2)c(N)c1 | 161 to 163

More lines, now with the values ahead:

melting point [°C] | SMILES
202 to 206 | COc1ccccc1C(=O)NS(=O)(=O)c1ccc(NC(=O)C2CCCC2)cc1
78.5 to 79.5 | O=C(Nc1ccc(F)cc1)N1CCCCN1
127 to 129 | NCc1cccc(CNC(N)=O)c1
64 to 66 | CCOC(=O)C(C)Oc1ncn(-c2ccc(Br)cc2)n1 (stereo not given)
105 to 106 | CCOC(=O)C1(NC(=O)OCc2ccccc2)CC(=O)NC1=O (stereo not given)
235 to 237 | COC(=O)c1ccc(Cn2c(=O)c(-c3c(Cl)cccc3Cl)cc3cnc(N)nc32)cc1
262 to 263 | CCC=Nc1cc(CO)cc(Nc2c3ccccc3nc3ccccc23)c1
127 to 128 | O=C(O)C=CC(=O)Oc1ccccc1
35 | CCOC(=O)N(N)c1ccc(C)cc1
196 to 198 | O=C(O)CN(C(=O)OCc1ccccc1)c1ccc(O)cc1
208 to 209 | CCc1c[nH]c(C2Cc3ccccc3N2C(=O)Nc2ccccc2[N+](=O)[O-])n1 (stereo not given)
104 to 106 | O=C(COc1cccc2ccccc12)NC(Cc1ccccc1)C(=O)CSCc1ccco1 (stereo not given)
190 to 192 | CC(C)(C)NCC(O)c1ccc(O)c(C(O)CO)c1 (stereo not given)
170 | CCCCCCCNC(=O)Nc1ccccc1C(=O)NCCn1cnc(-c2ccccc2)c1-c1ccccc1
69 to 71 | CC(=O)c1nc2ccc(OCC(F)(F)C(F)(F)C(F)(F)C(F)F)cc2cc1O
86 to 88 | COc1ccc(S(=O)(=O)C(C)(Cc2ccc(Br)cc2)C(=O)NO)cc1 (stereo not given)
60 | O=C(c1ccc(F)cc1)c1cc(F)ccc1OCCCCl
105 to 106 | O=C(C(=O)c1ccn(CC(F)(F)F)c1)c1cccc(Br)c1
82 to 83 | CCNC(=O)CCCNC(=O)OC(C)(C)C
44 to 54 | CCC(=O)C(Cc1ccc(O)cc1)C(=O)CC
235 to 237 | CCC(=NNc1ccc(C2=NNC(=O)CC2)cc1)c1ccncc1
69 to 71 | O=C(OCOC(=O)c1ccccc1)Oc1ccc([N+](=O)[O-])cc1
128 to 132 | CCOC(=O)c1c(C)n(C(=O)c2ccccc2)c2ccc(Oc3nc(OC)cc(OC)n3)c(C(=O)OCc3ccccc3)c12
156 to 158 | CCOC(=O)C1=C(C)Nc2ccnc(OC(C)C)c2C1c1cccc2c1OCO2 (stereo not given)
150 to 152 | CC(=O)c1ccc(NCCCN2CCC(c3noc4cc(F)ccc34)CC2)c(O)c1
125 to 127 | CN(C)C(=O)c1ccccc1CC(=O)Nc1cccc(/C=C/c2nc(C3CCC3)cs2)c1

melting point [°C] | SMILES
237 to 238 | CCc1cn(C2CCC(CNC(=O)Cc3c(Cl)cccc3Cl)O2)c(=O)[nH]c1=O (stereo not given)
48 to 50 | CCCc1c(OCCOCCC(=O)OC)ccc(C(C)=O)c1O
187 to 188 | C=C(C)C(=O)NCc1ccc(S(=O)(=O)ON=C2c3ccccc3-c3ccccc32)cc1
112 to 114 | CN(C(=O)N1CCOCC1)c1ccc(OCC(=O)N[C@@H](CC(N)=O)C(=O)N[C@@H](Cc2ccccc2)[C@H](O)C(=O)N2CCC[C@H]2C(=O)NC(C)(C)C)cc1
145 to 146 | COc1ccc2c(c1)cc(-c1nc(C)no1)n2-c1ccc(CNC(=O)C2(N)CC2)cc1
125 to 130 | CC1(C(=O)O)COc2ccccc2O1 (stereo not given)
231 to 232 | CCn1nc2c(N)nc3ccccc3c2c1CC1(O)CCN(C(C)=O)CC1
113 to 115 | CN(C)C=Nc1nc(OCc2ccc(F)cc2)ncc1F
160 to 163 | CC(C)ON=C(c1cccc(O)c1)n1cncn1
197 | CC#CCOc1ccc(S(=O)(=O)C2(C(=O)O)CCOCC2)cc1
74 to 75 | Cn1cccc1C(=O)NCCCSc1ccncc1
178 to 180 | O=C(OCn1cc(F)c(=O)n(COC(=O)c2ccccc2)c1=O)c1ccccc1
229 | CCc1ccccc1NC=C1C(=O)N(c2cccc(NC(=O)OC)c2)N=C1C
203 | CCCCCCCNC(=O)Nc1c(C(=O)NC2CCN(C(c3ccccc3)c3ccccc3)CC2)cccc1N(C)C
140 to 141 | CC[C@H](C)C(OCc1ccccc1)[C@H]1[C@H]([N+](=O)[O-])[C@H](c2ccccc2)N[C@@H]1C(=O)NCCC(=O)O (stereo not given in full)
130 to 133 | CNC(=O)N(O)C(C)c1ccc(F)cc1 (stereo not given)
102 to 106 | COC(=O)c1cnc(C(=O)OC)c(SCc2cccc(C(F)(F)F)c2)c1
> 300 | O=C(O)c1ccc(=O)n(CCNC(=O)c2ccncc2)c1
> 285 | Cc1nc(C)c(C(=O)O)c(-c2ccccc2F)c1C(=O)O
228 to 230 | Cc1ccccc1C(=O)Nc1ncc([N+](=O)[O-])s1
128 to 132 | CC(=O)NC(Cc1ccccc1)C(=O)NC(C)C(=O)O (stereo not given)
60 to 62 | CC(C)OCC(C)Oc1ccc(COc2cnn(C(C)(C)C)c(=O)c2Cl)cc1 (stereo not given)
174 to 176 | Cc1ccc(C=CC(=O)C=Cc2ccc(C)cc2)cc1
199 to 206 | Cc1cc(-c2cccc(-c3ccc(OCC(=O)O)c4c3CCCC4)n2)c(C)[nH]1
139 to 141 | COC(=O)c1cccc([N+](=O)[O-])c1-c1ccc2ccccc2c1OC
